Measured values reported in patent US4391978A, “Phenyl-quinolizidines” (Hoffmann-La Roche Inc., priority 1980, dated 1983).
Where a name gives a salt, the structure may show the parent alone. Read-outs that look alike come from different tables or passages of the source. Blank lines part the entries; values can stand above or below the compound they belong to.

Columns and labels:
[1] = tested on: rats trained to jump up on a vertical isolated pole; test: Pole Climbing Test (rat): inhibition of conditioned (BCR) and unconditioned (BUR) reaction; type: in vivo; conditions: ip; for ED50: inhibition of conditioned reaction in 50% of the animals, observation time 6 hours; for ED10: inhibition of unconditioned reaction, ED10, i.p.
Experimental: "Pole Climbing" Test (rat)
For this experimental procedure there was used per dosage a group of 10 rats trained to jump up on a vertical isolated pole in the experimental cage, to escape an electroshock (unconditioned stimulus) produced via the lattice floor immediately after an acoustic signal (conditioned stimulus). The inhibition of the conditioned reaction in the case of 50% of the animals during an observation time of 6 hours is determined by the parameter ED 50 BCR, the inhibition of the unconditioned reaction is determined by the parameter ED 10 BUR.

[2] = biological target: T1, receptor, calf striatum ([^3 H]-spiroperidol) (Bos taurus, UniProt P20288); test: Spiroperidol-Binding Test (in vitro)
T1 construct: calf striatum was used as the receptor; from tissue; host or cells: calf striatum
T1 sequence (P20288 whole entry): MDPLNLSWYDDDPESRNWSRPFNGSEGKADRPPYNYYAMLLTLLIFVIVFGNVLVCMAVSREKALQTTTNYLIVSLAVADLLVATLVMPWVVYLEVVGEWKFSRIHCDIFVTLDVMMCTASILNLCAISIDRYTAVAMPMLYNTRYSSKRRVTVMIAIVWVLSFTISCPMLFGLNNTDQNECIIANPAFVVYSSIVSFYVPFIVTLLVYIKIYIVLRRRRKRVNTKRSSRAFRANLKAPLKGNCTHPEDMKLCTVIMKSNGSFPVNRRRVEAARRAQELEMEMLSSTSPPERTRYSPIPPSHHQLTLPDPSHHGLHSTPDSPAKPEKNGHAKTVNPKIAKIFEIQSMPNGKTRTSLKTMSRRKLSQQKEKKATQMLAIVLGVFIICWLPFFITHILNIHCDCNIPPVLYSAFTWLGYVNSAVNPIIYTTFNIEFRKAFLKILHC

[3] = tested on: apomorphine-induced vomiting (dog); test: Antiemetic Activity (dog): apomorphine-induced vomiting; type: in vivo, dog (Beagle hounds); conditions: Canis lupus familiaris, po, 1 hour before apomorphine hydrochloride 0.1 or 0.3 mg/kg s.c., 50% of animals protected, read-out: Anti-apomorphine emesis ED50 p.o.
[4] = 50% detachment of specific binding of [^3 H]-spiroperidol, calf striatum, in vitro, read-out: Spiroperidol-Binding IC50

Compound: O=c1[nH]c2cc(Br)ccc2n1[C@@H]1CCN2C[C@@H](c3ccccc3F)CC[C@@H]2C1 (relative stereo) [rac-1-[(9aβH)--7β-(o-Fluorophenyl)-octahydro-2H--quinolizin-2α-yl]-5-bromo-2-benzimidazolinone.HCl]
- ED50 [1]: 0.08 mg/kg
- ED10 [1]: 0.1 mg/kg
- IC50 [2]: 3.8 nM

Compound: N#Cc1ccc2c(c1)[nH]c(=O)n2[C@@H]1CCN2C[C@@H](c3ccccc3F)CC[C@@H]2C1 (relative stereo) [rac-1-[(9aβH)--7β-(o-Fluorophenyl)-octahydro-2H--quinolizin-2α-yl]-5-cyano-2-benzimidazolinone.HCl]
- ED50 [1]: 0.65 mg/kg
- ED10 [1]: 1 mg/kg
- IC50 [2]: 50 nM

Compound: O=C1CCCN1C(=O)N[C@@H]1CCN2C[C@@H](c3ccccc3Cl)CC[C@@H]2C1 (relative stereo) [rac-N-((9aβH)-7β-(o-chlorophenyl)octahydro-2H-quinolizin-2α-yl)-2-oxo-1-pyrrolidinecarboxamide]
- ED50 [1]: 23 mg/kg
- ED10 [1]: > 30 mg/kg

Compound: O=C(N[C@@H]1CCN2C[C@@H](c3ccccc3Cl)CC[C@@H]2C1)C1CC1 (relative stereo) [rac-N-[(9aβH)-7β-(o-chlorophenyl)-octahydro-2H-quinolizin-2α-yl]-cyclopropanecarboxamide]
- ED50 [1]: 6 mg/kg
- ED10 [1]: 5.5 mg/kg
- IC50 [2, 4]: 550 nM

- IC50 [2, 4]: 67 nM
Compound: O=C(N[C@@H]1CCN2C[C@@H](c3ccccc3Cl)CC[C@@H]2C1)c1ccc(F)cc1 (relative stereo) [rac-N-((9aβH)-7β-(o-chlorophenyl)octahydro-2H-quinolizin-2α-yl)-p-fluorobenzamide]
- ED50 [1]: 12 mg/kg
- ED10 [1]: 5.5 mg/kg

- IC50 [2, 4]: 11 nM
Compound: O=C(c1ccc(F)cc1)[C@@H]1CCN2C[C@@H](c3ccccc3Cl)CC[C@@H]2C1 (relative stereo) [rac-[(9aβH)-7β-(o-chlorophenyl)-octahydro-2H-quinolizin-2α-yl]p-fluorophenylketone]
- ED50 [1]: 3 mg/kg
- ED10 [1]: 3 mg/kg

Compound: O=c1[nH]c2cc(I)ccc2n1[C@@H]1CCN2C[C@@H](c3ccccc3F)CC[C@@H]2C1 (relative stereo) [rac-1-[(9aβH)-7β-(o-fluorophenyl)-octahydro-2H-quinolizin-2α-yl]-5-iodo-2-benzimidazolinone]
- ED50 [1]: 0.1 mg/kg
- ED10 [1]: 0.055 mg/kg
- IC50 [2]: 8.6 nM

- IC50 [2, 4]: 135 nM
Compound: CCS(=O)(=O)c1ccc(OC)c(C(=O)N[C@@H]2CCN3C[C@@H](c4ccccc4Cl)CC[C@@H]3C2)c1 (relative stereo) [rac-N-((9aβH)-7β-(o-chlorophenyl)octahydro-2H-quinolizin-2α-yl)-5-(ethylsulfonyl)-o-anisamide]
- ED50 [1]: 10 mg/kg
- ED10 [1]: 10 mg/kg
- ED50 [3]: 0.38 mg/kg

- IC50 [2, 4]: 123 nM
Compound: O=C(N[C@@H]1CCN2C[C@@H](c3ccccc3Cl)CC[C@@H]2C1)c1cccs1 (relative stereo) [rac-N-((9aβH)-7β-(o-chlorophenyl)octahydro-2H-quinolizin-2α-yl)-2-thiophenecarboxamide]
- ED50 [1]: 18 mg/kg
- ED10 [1]: 25 mg/kg

Compound: COc1ccc(S(N)(=O)=O)cc1C(=O)N[C@@H]1CCN2C[C@@H](c3ccccc3Cl)CC[C@@H]2C1 (relative stereo) [rac-N-((9aβH)-7β-(o-chlorophenyl)octahydro-2H-quinolizin-2α-yl)-5-sulfamoyl-o-anisamide]
- ED50 [3]: 0.8 mg/kg

- IC50 [2, 4]: 30 nM
Compound: COc1cc(N)c(Cl)cc1C(=O)N[C@@H]1CCN2C[C@@H](c3ccccc3Cl)CC[C@@H]2C1 (relative stereo) [rac-4-amino-5-chloro-N-[(9aβH)-7β-(o-chlorophenyl)-octahydro-2H-quinolizin-2α-yl]-o-anisamide]
- ED50 [1]: 12.5 mg/kg
- ED10 [1]: 12.5 mg/kg
- ED50 [3]: 2.3 mg/kg
